# Results taken from patent publication US20250186442A1, “Obicetrapib and Ezetimibe Combination Treatment and Fixed Dose Pharmaceutical Compositions” (NewAmsterdam Pharma B.V., priority 2022, published 2025).
# Like-named read-outs stand apart in the source and are kept apart here.
# Tests used:
# ApoA1 = settings: TA-8995-03; 10 mg daily dose, mild dyslipidemia; cited from earlier work
# [1] = healthy volunteers; single doses up to 150 mg and multiple doses up to 25 mg/day for 21 days; cited from earlier work
# Solubility in water = type: physicochemical; settings: in water at 20° C.
# From the text: Solubility is especially challenging with obicetrapib. […] It would be desirable to have a solid form of obicetrapib that would deliver a larger amount of obicetrapib.
# [2] = patients; daily dosing of 10 mg for 12 weeks, alone and with 2 different statins; cited from earlier work
# [3] = ROSE2 phase 2b clinical trial - safety and tolerability (adverse events); type: in vivo, human; settings: All Randomized Participants; obicetrapib 10 mg (N = 39), obicetrapib 10 mg + ezetimibe 10 mg (N = 40)
# Protocol: The exploratory objectives of this study include the following: • To evaluate the effect of obicetrapib 10 mg+ezetimibe 10 mg combination therapy and obicetrapib 10 mg monotherapy, when used as an adjunct to high-intensity statin therapy, on non-high-density lipoprotein cholesterol (non-HDL-C), very low-density lipoprotein cholesterol (VLDL-C), HDL-C, TG, ApoE, Lp(a), and HDL-ApoE at Day 84; • To evaluate the effect of obicetrapib 10 mg+ezetimibe 10 mg combination therapy and obicetrapib 10 mg monotherapy, when used as an adjunct to high-intensity statin therapy, on the proportion of participants achieving predefined LDL-C targets at Day 84; • To assess the mean trough plasma levels of obicetrapib 10 mg+ezetimibe 10 mg combination therapy and obicetrapib 10 mg monotherapy at steady state on Days 28, 84, and 112; and • To evaluate the safety and tolerability profiles of obicetrapib 10 mg+ezetimibe 10 mg combination therapy and obicetrapib 10 mg monotherapy, when used as an adjunct to high-intensity statin therapy, assessed by clinical laboratory values and incidence of AEs.
# The safety and tolerability profile of obicetrapib 10 mg, both in combination with ezetimibe 10 mg and as monotherapy, will be assessed by clinical laboratory assessments (chemistry and hematology), vital signs, physical examinations, and the incidence of AEs.
# An AE can therefore be any unfavorable and/or unintended sign (including an abnormal laboratory finding), symptom, or disease temporally associated with the use of an investigational medicinal product, whether or not related to the investigational medicinal product. All AEs, including observed or volunteered problems, complaints, or symptoms, are to be recorded on the appropriate eCRF.
# AEs, which include clinical laboratory assessment variables, will be monitored and documented from the time of first dose of study treatment until completion of Visit 5. Participants should be instructed to report any AE that they experience to the Investigator, whether or not they think the event is due to study drug. Beginning at the date of the first dose of study treatment, Investigators should make an assessment for AEs at each visit and record the event on the appropriate AE eCRF.
# The Investigator will assess the severity (intensity) of each AE as mild, moderate, or severe, and will also categorize each AE as to its potential relationship to study drug using the categories of yes or no.
# • Mild—An event that is easily tolerated and generally not interfering with normal daily activities. • Moderate—An event that is sufficiently discomforting to interfere with normal daily activities. • Severe—An event that is incapacitating with inability to work or perform normal daily activities.
# An AE or adverse reaction is considered serious if, in the view of either the Investigator or Sponsor, it results in any of the following outcomes: • Death; • A life-threatening AE;
# The Safety Population will include all participants who receive at least 1 dose of any study drug. Treatment classification will be based on the actual treatment received. The Safety Population will be the primary population used for the safety analyses.
compound,measurement,setting,value
"CCOC(=O)N1c2ccc(C(F)(F)F)cc2[C@@H](N(Cc2cc(C(F)(F)F)cc(C(F)(F)F)c2)c2ncc(OCCCC(=O)O)cn2)C[C@H]1CC [Obicetrapib, {4-[(2-{[3,5-bis(trifluoromethyl)benzyl][(2R,4S)-1-(ethoxycarbonyl)-2-ethyl-6-(trifluoromethyl)-1,2,3,4-tetrahydroquinolin-4-yl]amino}pyrimidin-5-yl)oxy]butanoic acid}]",ApoA1 increase,ApoA1,63.4%
same,tolerability,[1],generally well tolerated
same,solubility,Solubility in water,< 100 µg/mL
same,tolerability,[2],well tolerated
same,"Primary reason for early study discontinuation: ADVERSE EVENT, (%)",[3],(2.6) %
same,"Primary reason for treatment discontinuation: ADVERSE EVENT, (%)",[3],(5.1) %
